Test results taken from article PMC6345558 (European journal of medicinal chemistry, 2018).

Experiments:
MCF7 cancer cells = assay: MTT cytotoxicity, MCF7 breast cancer cells; type: cell-based, human; details: for IC50: read-out: IC50 MCF7, MTT assay, 24 h incubation
MDA-MB-231 cancer cells = assay: MTT cytotoxicity, MDA-MB-231 breast cancer cells; type: cell-based, human; details: read-out: IC50 MDA-MB-231; MTT assay, 24 h incubation
NIH3T3 cells = assay: MTT growth inhibition, NIH3T3 control cells; type: cell-based; details: read-out: Half inhibitory growth concentration, IG50, NIH3T3, empty plasmid control, 48 h incubation at 37 °C
MRP1 = MRP1 (Homo sapiens, UniProt P33527); assay: Flow cytometry, inhibition of calcein AM efflux by MRP1; type: cell-based; details: compound 20 µM, 0.2 µM calcein AM, transfected cells
Chain of MRP1 (P33527 whole entry): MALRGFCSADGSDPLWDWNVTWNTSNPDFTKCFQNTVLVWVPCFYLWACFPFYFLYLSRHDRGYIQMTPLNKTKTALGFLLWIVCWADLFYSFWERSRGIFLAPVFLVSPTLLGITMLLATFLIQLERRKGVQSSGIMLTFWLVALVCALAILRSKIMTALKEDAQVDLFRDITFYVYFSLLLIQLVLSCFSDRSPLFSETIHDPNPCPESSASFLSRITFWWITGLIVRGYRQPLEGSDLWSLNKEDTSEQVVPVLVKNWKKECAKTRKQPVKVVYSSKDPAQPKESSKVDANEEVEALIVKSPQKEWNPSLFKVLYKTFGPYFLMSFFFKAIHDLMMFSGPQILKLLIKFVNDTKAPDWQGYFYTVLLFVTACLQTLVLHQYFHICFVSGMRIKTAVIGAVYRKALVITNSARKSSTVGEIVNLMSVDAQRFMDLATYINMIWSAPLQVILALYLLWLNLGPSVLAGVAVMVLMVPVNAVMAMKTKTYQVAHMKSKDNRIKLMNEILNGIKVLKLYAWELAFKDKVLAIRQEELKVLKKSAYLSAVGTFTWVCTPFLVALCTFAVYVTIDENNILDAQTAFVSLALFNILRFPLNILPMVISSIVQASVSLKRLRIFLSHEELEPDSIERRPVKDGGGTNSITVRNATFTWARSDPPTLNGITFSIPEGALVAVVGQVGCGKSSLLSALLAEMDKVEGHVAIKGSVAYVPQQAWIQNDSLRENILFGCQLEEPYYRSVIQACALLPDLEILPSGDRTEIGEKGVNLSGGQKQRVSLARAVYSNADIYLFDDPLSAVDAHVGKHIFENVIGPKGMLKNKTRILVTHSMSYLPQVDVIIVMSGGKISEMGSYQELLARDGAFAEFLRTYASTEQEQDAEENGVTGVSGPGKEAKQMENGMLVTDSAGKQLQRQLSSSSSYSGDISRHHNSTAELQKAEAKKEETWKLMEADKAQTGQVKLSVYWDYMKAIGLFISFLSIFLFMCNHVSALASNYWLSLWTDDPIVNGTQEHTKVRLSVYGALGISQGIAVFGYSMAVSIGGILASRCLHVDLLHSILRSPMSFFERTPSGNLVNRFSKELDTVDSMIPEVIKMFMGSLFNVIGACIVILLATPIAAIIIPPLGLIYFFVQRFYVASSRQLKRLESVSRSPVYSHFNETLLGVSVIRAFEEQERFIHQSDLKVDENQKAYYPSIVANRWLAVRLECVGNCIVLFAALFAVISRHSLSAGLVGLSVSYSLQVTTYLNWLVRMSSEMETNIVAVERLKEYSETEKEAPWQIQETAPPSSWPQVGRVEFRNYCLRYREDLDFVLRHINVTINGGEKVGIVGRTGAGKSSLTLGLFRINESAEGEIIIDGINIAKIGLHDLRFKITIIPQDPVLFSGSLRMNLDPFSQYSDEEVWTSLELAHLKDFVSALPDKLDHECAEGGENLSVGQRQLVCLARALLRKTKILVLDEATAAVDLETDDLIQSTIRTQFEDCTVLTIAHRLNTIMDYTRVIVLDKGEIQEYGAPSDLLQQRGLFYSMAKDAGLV

MRP2 = MRP2 (Homo sapiens, UniProt Q92887); assay: Flow cytometry, inhibition of calcein AM efflux by MRP2; type: cell-based; details: compound 20 µM, 0.2 µM calcein AM, transfected cells
Chain of MRP2 (Q92887 whole entry): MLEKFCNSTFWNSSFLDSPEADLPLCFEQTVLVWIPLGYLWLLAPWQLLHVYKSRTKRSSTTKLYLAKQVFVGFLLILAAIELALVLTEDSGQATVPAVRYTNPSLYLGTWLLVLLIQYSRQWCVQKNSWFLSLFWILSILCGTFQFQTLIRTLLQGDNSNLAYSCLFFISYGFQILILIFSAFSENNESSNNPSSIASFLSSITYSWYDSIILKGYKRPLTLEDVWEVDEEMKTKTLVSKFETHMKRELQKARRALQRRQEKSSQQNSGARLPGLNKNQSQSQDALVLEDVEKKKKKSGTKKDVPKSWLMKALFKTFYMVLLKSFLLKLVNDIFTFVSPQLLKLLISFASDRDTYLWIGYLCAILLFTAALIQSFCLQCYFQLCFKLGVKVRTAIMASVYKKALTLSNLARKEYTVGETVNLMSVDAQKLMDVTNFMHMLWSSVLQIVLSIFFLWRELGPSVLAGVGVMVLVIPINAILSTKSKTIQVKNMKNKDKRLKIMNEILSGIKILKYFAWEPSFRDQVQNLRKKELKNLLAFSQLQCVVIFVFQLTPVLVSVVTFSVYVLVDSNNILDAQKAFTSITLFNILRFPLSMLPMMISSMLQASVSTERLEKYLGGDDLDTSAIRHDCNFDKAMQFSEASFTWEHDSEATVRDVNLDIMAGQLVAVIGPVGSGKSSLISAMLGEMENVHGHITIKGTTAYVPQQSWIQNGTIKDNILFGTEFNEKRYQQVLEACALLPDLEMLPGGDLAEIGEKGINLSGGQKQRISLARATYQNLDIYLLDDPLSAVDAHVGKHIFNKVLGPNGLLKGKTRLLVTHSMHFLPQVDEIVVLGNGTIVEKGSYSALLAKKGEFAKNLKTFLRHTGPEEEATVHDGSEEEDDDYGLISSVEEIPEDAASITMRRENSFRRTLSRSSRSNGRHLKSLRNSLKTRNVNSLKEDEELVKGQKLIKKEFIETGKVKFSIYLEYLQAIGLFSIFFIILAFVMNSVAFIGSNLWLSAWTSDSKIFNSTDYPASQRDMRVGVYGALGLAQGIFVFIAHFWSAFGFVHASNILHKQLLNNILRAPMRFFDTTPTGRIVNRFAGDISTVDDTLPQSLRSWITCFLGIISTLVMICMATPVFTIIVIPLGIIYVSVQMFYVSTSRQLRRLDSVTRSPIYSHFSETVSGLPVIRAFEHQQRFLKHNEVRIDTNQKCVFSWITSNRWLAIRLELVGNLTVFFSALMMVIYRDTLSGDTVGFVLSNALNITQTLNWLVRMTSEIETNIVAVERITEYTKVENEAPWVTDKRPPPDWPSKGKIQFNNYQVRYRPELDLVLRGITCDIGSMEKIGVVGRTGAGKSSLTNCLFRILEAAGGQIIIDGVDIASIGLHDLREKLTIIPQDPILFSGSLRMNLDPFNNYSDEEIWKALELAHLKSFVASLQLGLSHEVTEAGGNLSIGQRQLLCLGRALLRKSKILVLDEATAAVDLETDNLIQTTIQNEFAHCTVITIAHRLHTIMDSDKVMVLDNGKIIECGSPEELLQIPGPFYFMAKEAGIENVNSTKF

[1] = test system: NIH3T3 cells overexpressing P-gp; assay: MTT growth inhibition, NIH3T3 cells overexpressing P-gp
[2] = test system: HEK293 cells overexpressing MRP1; assay: MTT growth inhibition, HEK293 cells overexpressing MRP1; details: HEK293/MRP1 vs HEK293
[3] = test system: HEK293 cells overexpressing BCRP; assay: MTT growth inhibition, HEK293 cells overexpressing BCRP; details: HEK293/BCRP vs HEK293
BCRP (ABCG2) = biological target: T1, BCRP (ABCG2) (Homo sapiens, UniProt Q9UNQ0); assay: Flow cytometry, inhibition of mitoxantrone efflux by BCRP; details: compound 20 µM, 5 µM mitoxantrone, transfected cells
T1 sequence (Q9UNQ0 1-655): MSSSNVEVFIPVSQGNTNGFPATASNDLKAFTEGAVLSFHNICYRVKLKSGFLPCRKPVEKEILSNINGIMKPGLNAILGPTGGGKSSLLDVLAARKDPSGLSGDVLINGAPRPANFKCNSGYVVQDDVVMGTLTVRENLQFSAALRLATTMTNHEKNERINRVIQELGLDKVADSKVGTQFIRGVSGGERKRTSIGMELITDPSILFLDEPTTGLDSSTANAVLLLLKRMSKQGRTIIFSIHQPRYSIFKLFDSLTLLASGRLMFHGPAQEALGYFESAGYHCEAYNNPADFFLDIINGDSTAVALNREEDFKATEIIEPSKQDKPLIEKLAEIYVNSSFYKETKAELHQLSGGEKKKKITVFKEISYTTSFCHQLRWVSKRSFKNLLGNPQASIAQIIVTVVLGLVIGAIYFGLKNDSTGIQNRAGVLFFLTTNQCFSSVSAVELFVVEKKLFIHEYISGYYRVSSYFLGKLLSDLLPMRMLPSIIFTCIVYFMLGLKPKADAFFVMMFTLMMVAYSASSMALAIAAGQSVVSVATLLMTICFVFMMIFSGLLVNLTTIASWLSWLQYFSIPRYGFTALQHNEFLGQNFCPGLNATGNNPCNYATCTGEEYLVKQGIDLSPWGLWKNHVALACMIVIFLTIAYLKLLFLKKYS

Row | Compound | IC50 (MCF7 cancer cells) [µM] | IC50 (MDA-MB-231 cancer cells) [µM] | fold more cytotoxic than Ru2 (MCF7 cancer cells; MCF7 cancer cell line) | IC50 (NIH3T3 cells) [µM] | Inhibition of MRP1 substrate efflux (MRP1) | Inhibition of MRP2 substrate efflux (MRP2) | IG50 times higher than for non-transfected cells, P-gp ([1]; NIH3T3/P-gp vs NIH3T3) [times] | IC50 ([1]; read-out: Half inhibitory growth concentration, IG50, P-gp, NIH3T3 overexpressing P-gp, 48 h incubation at 37 °C, MTT) [µM] | IG50 times higher than for non-transfected cells, MRP1 [2] [times] | IG50 times higher than for non-transfected cells, BCRP [3] [times] | Inhibition of BCRP (ABCG2) substrate efflux (BCRP (ABCG2))
1 | N.N.[Cl][Pt][Cl] [Cisplatin, reference compound] | 38 ± 1.41 | 122 ± 25 | – | – | – | – | – | – | – | – | –
2 | O=S(=O)([O-])C(F)(F)F.OCc1ccnc(-c2cc(CO)ccn2)c1.[Ru+2].c1cc[cH-]c1.c1ccc(P(c2ccccc2)c2ccccc2)cc1 [Ru1, [Ru(η^5-Cp)(PPh3)(2,2’-bipyridine-4,4’-dimethanol)][CF3SO3]] | 4.61 ± 0.96 | 13.9 ± 2.8 | ~ 7 fold | 28 | did not display any inhibition property | did not display any inhibition property | 2.4 | ~70 | 2 | 2.8 | did not display any inhibition property
